Laboratory results: article PMC9736374, “Design, Synthesis and Antimicrobial Properties of New Tetracyclic Quinobenzothiazine Derivatives” (International Journal of Molecular Sciences, 2022)

Columns and labels:
[1] = test system: vancomycin-resistant E. faecalis VRE 725B (VRE3); test: MIC, microtitration broth method; type: cell-based, Enterococcus faecalis; conditions: VRE3 = VRE 725B; 24 h, 37 °C
Lipophilicity by RP-TLC = type: physicochemical; conditions: Tris buffer pH 7.4/acetone, read-out: logPTLC
Procedure: The lipophilicity parameters were determined experimentally using reverse phase thin-layer chromatography (RP-TLC). Chromatograms were prepared on RP-18F254s plates (1.05559.0001, Merck, Germany) precoated with nonpolar silicone oil. Plates were developed in glass chromatography chambers previously saturated with vapor of mobile phase. The mobile phase was composed of 0.2M Tris buffer (pH = 7.4) and acetone in different concentrations, i.e., 50%, 60%, 70%, 80 and 90%. The chromatograms were visualised in UV light (λ = 254 nm). Determination of the RF coefficient was carried out twice for all compounds; in all cases, acetone concentrations used. The final value of RF is the mean of the two measurements. The obtained RF coefficient was used to calculate the value of the RM parameter according to the equation: RM = log [(1/RF) − 1]. By extrapolating RM values to zero acetone concentration, a relative RM0 lipophilicity parameter was obtained, according to the equation: RM = RM0 + bC, where b is slope and C is concentration of acetone in mobile phase. Based on RM0 and the calibration curve, the values of logPTLC for compounds 6a–l were determined. The calibration curve was calculated using the relationship between RM0 of the standard molecules (acetanilide, p-kresol, p-bromoacetophenone, benzophenone, anthracene) and the corresponding logP parameters specified by the extraction method, respectively. RM0 parameters of the standard molecules and quinobenzothiazine derivatives 6a–l were determined in the same empirical conditions.

[2] = test system: vancomycin-resistant E. faecalis VRE 725B (VRE3); test: MBC, agar aliquot subculture method; type: cell-based, Enterococcus faecalis; conditions: VRE3 = VRE 725B
[3] = test system: Staphylococcus aureus ATCC 29213; test: MBC, agar aliquot subculture method; type: cell-based; conditions: ATCC29213; SA = Staphylococcus aureus ATCC 29213
[4] = test system: vancomycin-resistant E. faecalis VRE 342B (VRE1); test: MIC, microtitration broth method; type: cell-based, Enterococcus faecalis; conditions: VRE1 = VRE 342B; 24 h, 37 °C
S. aureus = test: Crystal violet uptake (membrane permeability); type: cell-based, Staphylococcus aureus; conditions: 4× MIC, 1 h; compared to growth control and 1% Tween 20
Procedure: Phenothiazines are also known for their ability to interact with and damage the cell wall, which has fatal consequences for the microorganism. Therefore, the bacterial suspensions were treated by compounds 6a, 6e, 6g, 6j and 6k (4× MIC) for 1 h. The uptake of crystal violet was expressed as a percentage compared to the original crystal violet solution.

[5] = test system: methicillin-resistant S. aureus SA 630 (MRSA2); test: MIC, microtitration broth method; type: cell-based; conditions: Staphylococcus aureus; MRSA2 = SA 630; 24 h, 37 °C
[6] = test system: normal human dermal fibroblasts (NHDF); test: In vitro cell viability, WST-1 assay; type: cell-based; conditions: 72 h
Procedure: Compounds were evaluated for their antiproliferative activity using NHDF (normal human dermal fibroblasts, ATCC, Manassas, VA, USA). The cultured cells were kept at 37 °C and 5% CO2. The cells were seeded (1 × 10^4 cells/well/100 μL DMEM supplemented with 10% FCS and streptomycin/penicillin) into 96-well plates (Corning Inc., Corning, NY, USA). Cells were counted using a hemocytometer (Burker chamber) and phase contrast Olympus IX50 microscope equipped with Sony SSC-DC58 AP camera and Olympus DP10 digital camera. The cell viability of the compounds was determined using the Cell Proliferation Reagent WST-1 assay (Roche Molecular Biochemicals, Mannheim, Germany). The examined cells were exposed to the tested compounds (1 mg/mL DMSO stock) for 72 h at various concentrations (0.1–100 μg/mL). The control was included in order to eliminate the DMSO effect at the concentration used. Cell cultures were incubated with WST-1 (10 μL) for 1 h. The absorbance of the samples was measured against a background control at 450 nm using a microplate reader with a reference wavelength at 600 nm. The obtained results are expressed as means of at least two independent experiments performed in triplicate.

[7] = test system: methicillin-resistant S. aureus 63718 (MRSA3); test: MBC, agar aliquot subculture method; type: cell-based; conditions: Staphylococcus aureus; MRSA3 = 63718
[8] = test system: methicillin-resistant S. aureus SA 3202 (MRSA1); test: MIC, microtitration broth method; type: cell-based; conditions: Staphylococcus aureus; MRSA1 = SA 3202; 24 h, 37 °C
[9] = test system: Mycobacterium marinum CAMP 5644; test: In vitro antimycobacterial MIC, broth dilution micro-method; type: cell-based; conditions: CAMP5644, 504 h; MM = Mycobacterium marinum CAMP 5644; 21 days, 28 °C
M. smegmatis ATCC 700084 = test: as above; type: cell-based, Mycobacterium smegmatis; conditions: Mycolicibacterium smegmatis, ATCC700084, 72 h; MS = M. smegmatis ATCC 700084; 3 days, 37 °C
[10] = test system: vancomycin-resistant E. faecalis VRE 342B (VRE1); test: MBC, agar aliquot subculture method; type: cell-based, Enterococcus faecalis; conditions: VRE1 = VRE 342B
[11] = test system: methicillin-resistant S. aureus SA 630 (MRSA2); test: MBC, agar aliquot subculture method; type: cell-based; conditions: Staphylococcus aureus; MRSA2 = SA 630
[12] = test system: methicillin-resistant S. aureus SA 3202 (MRSA1); test: MBC, agar aliquot subculture method; type: cell-based; conditions: Staphylococcus aureus; MRSA1 = SA 3202
[13] = test system: S. aureus ATCC 29213 respiratory activity; test: MTT assay of bacterial respiration; type: cell-based, Staphylococcus aureus
[14] = test system: vancomycin-resistant E. faecalis VRE 368 (VRE2); test: MBC, agar aliquot subculture method; type: cell-based, Enterococcus faecalis; conditions: VRE2 = VRE 368
[15] = test system: Enterococcus faecalis ATCC 29212; test: MBC, agar aliquot subculture method; type: cell-based; conditions: ATCC29212; EF = Enterococcus faecalis
[16] = test system: Enterococcus faecalis ATCC 29212; test: MIC, microtitration broth method; type: cell-based; conditions: ATCC29212; EF = Enterococcus faecalis; 24 h, 37 °C
[17] = test system: methicillin-resistant S. aureus 63718 (MRSA3); test: MIC, microtitration broth method; type: cell-based; conditions: Staphylococcus aureus; MRSA3 = 63718; 24 h, 37 °C
[18] = test system: Staphylococcus aureus ATCC 29213; test: MIC, microtitration broth method; type: cell-based; conditions: ATCC29213; SA = Staphylococcus aureus ATCC 29213; 24 h, 37 °C
[19] = test system: vancomycin-resistant E. faecalis VRE 368 (VRE2); test: MIC, microtitration broth method; type: cell-based, Enterococcus faecalis; conditions: VRE2 = VRE 368; 24 h, 37 °C
[20] = S. aureus ATCC 29213, MTT, 24 h

Compound	MIC [1]	chromatographic logP (Lipophilicity by RP-TLC)	MBC [2]	MBC [3]	MIC [4]	MIC [5]	IC50 [6]	MBC [7]	MIC [8]	MIC [9]	MIC (M. smegmatis ATCC 700084)	MBC [10]	MBC [11]	MBC [12]	MBC [14]	MBC [15]	MIC [16]	MIC [17]	MIC [18]	MIC [19]	also measured
C[n+]1cc2c(c3ccccc31)Nc1cc(OCc3ccccc3)ccc1S2 [Compound 6k, 10-benzyloxy-5-methyl-12H-quino[3,4-b][1,4]benzothiazinium chloride]	157 µM	3.48	157 µM	19.7 µM	78.6 µM	9.83 µM	> 100 µM	9.83 µM	19.7 µM	19.7 µM	19.7 µM	78.6 µM	19.7 µM	19.7 µM	157 µM	78.6 µM	78.6 µM	9.83 µM	19.7 µM	157 µM	Effect on plasma membrane permeability (uptake of crystal violet) (S. aureus): did not affect plasma membrane permeability; Conc.: corresponding multiple of MBC with at least 70% inhibition of respiratory activity [13, 20]: 2× MIC (2× MBC); Conc.: lowest multiple of MIC with at least 70% inhibition of respiratory activity [13, 20]: 2× MIC (2× MBC); Decrease in viability < 70% at MIC value (MTT) ([13]; S. aureus ATCC 29213, at MIC): did not show a decrease in viability < 70%; S. aureus Respiration Inhibition ([13]; at the concentration given): 97.6%
CCCOc1cccc2c1Nc1c(c[n+](C)c3ccccc13)S2 [Compound 6c, 11-propoxy-5-methyl-12H-quino[3,4-b][1,4]benzothiazinium chloride]	89.1 µM	1.18	178 µM	178 µM	178 µM	178 µM	> 100 µM	178 µM	178 µM	44.6 µM	44.6 µM	178 µM	178 µM	178 µM	178 µM	178 µM	178 µM	178 µM	178 µM	178 µM	
C#CCOc1cccc2c1Nc1c(c[n+](C)c3ccccc13)S2 [Compound 6i, 11-propargyloxy-5-methyl-12H-quino[3,4-b][1,4]benzothiazinium chloride]	180 µM	2.2	180 µM	180 µM	180 µM	361 µM	47.5 µM	180 µM	180 µM	45.1 µM	90.1 µM	180 µM	361 µM	361 µM	180 µM	361 µM	361 µM	180 µM	180 µM	180 µM	
CCCOc1ccc2c(c1)Nc1c(c[n+](C)c3ccccc13)S2 [Compound 6b, 10-propoxy-5-methyl-12H-quino[3,4-b][1,4]benzothiazinium chloride]	89.1 µM	1.99	89.1 µM	44.6 µM	178 µM	44.6 µM	65.5 µM	22.3 µM	44.6 µM	22.3 µM	22.3 µM	178 µM	44.6 µM	44.6 µM	178 µM	89.1 µM	89.1 µM	22.3 µM	22.3 µM	178 µM	
C=CCOc1ccc2c(c1)Sc1c[n+](C)c3ccccc3c1N2 [Compound 6d, 9-allyloxy-5-methyl-12H-quino[3,4-b][1,4]benzothiazinium chloride]	22.4 µM	2.98	44.8 µM	44.8 µM	44.8 µM	89.6 µM	> 100 µM	44.8 µM	44.8 µM	11.2 µM	22.4 µM	44.8 µM	89.6 µM	44.8 µM	44.8 µM	44.8 µM	44.8 µM	44.8 µM	44.8 µM	44.8 µM	
